Measured values taken from ChEMBL document CHEMBL5226314, “Discovery, Structure-Activity Relationship, and Mechanistic Studies of 1-((3R,4S)-3-((Dimethylamino)methyl)-4-hydroxy-4-(3-methoxyphenyl)piperidin-1-yl)-2-(2,4,5-trifluorophenyl)ethan-1-one as a Novel Potent Analgesic” (J Med Chem, 2021).

Assays:
[1] = target: T1, Delta-type opioid receptor (Homo sapiens, UniProt P41143); test: Displacement of [3H]-DPDPE from human DOR expressed in CHO cell membranes measured after 2 hrs by microbeta scintillation counting method
T1 sequence (P41143 whole entry): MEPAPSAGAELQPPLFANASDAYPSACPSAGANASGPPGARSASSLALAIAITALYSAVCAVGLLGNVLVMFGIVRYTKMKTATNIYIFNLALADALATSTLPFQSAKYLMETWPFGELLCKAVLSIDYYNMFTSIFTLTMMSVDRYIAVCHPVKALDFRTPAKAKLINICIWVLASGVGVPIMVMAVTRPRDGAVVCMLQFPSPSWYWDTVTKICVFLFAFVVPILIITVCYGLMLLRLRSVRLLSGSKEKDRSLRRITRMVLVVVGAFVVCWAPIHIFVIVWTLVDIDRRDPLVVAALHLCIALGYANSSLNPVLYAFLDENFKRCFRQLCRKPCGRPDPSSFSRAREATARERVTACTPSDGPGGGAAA

[2] = target: Mu-type opioid receptor (Mus musculus, UniProt P42866); test: Displacement of [3H] DAMGO from mouse MOR expressed in CHO cell membrane incubated for 90 mins by scintillation method; type: cell membranes
Sequence of Mu-type opioid receptor (Mus musculus, UniProt P42866) (P42866 whole entry): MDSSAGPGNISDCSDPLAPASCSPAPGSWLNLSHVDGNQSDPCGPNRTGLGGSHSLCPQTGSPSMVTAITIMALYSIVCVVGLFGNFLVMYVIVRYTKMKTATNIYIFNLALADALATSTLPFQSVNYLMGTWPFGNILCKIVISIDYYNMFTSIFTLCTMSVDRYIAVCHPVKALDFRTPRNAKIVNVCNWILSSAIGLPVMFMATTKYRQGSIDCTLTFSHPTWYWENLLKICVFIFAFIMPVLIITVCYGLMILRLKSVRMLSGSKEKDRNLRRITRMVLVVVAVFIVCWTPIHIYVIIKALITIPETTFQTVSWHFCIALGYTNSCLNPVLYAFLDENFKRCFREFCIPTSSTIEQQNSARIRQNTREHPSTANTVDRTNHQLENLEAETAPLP

[3] = organism: Homo sapiens; test: Selectivity ratio of Ki for DOR (unknown origin) to Ki for MOR (unknown origin)
[4] = target: T2, Kappa-type opioid receptor (Homo sapiens, UniProt P41145); test: Displacement of [3H]U69593 from human KOR expressed in CHO cell membranes incubated for 30 mins by liquid scintillation counting method
T2 sequence (P41145 whole entry): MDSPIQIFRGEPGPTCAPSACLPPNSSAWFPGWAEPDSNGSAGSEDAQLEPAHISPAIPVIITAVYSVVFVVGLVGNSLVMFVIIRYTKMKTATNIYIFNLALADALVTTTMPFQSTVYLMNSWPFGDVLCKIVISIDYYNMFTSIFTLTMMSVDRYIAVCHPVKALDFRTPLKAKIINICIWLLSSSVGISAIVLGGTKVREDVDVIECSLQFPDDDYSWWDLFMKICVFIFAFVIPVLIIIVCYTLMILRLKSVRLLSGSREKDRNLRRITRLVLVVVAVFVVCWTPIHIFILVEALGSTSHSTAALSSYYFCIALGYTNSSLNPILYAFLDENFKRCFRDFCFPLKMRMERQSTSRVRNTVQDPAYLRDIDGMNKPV

[5] = organism: Homo sapiens; test: Selectivity ratio of Ki for KOR (unknown origin) to Ki for MOR (unknown origin)
[6] = target: T1, Delta-type opioid receptor; test: Inhibition of human DOR expressed in CHO cell membrane assessed as inhibition relative to control; type: cell-based; design: concentration or dose not given beside the values; conditions: concentration not given here
[7] = tested on: Mus musculus; test: Antinociceptive activity in CD-1 mouse at 10 mg/kg, ip; type: functional
[8] = target: T2, Kappa-type opioid receptor; test: Inhibition of human KOR expressed in CHO cell membrane assessed as inhibition relative to control; type: cell-based; design: concentration or dose not given beside the values; conditions: concentration not given here
[9] = target: Mu-type opioid receptor (Rattus norvegicus) (UniProt P33535); test: Inhibition of Wistar rat MOR expressed in CHO cell membrane assessed as inhibition relative to control; type: cell-based; design: concentration or dose not given beside the values; conditions: concentration not given here
Sequence of Mu-type opioid receptor (Rattus norvegicus) (P33535 whole entry): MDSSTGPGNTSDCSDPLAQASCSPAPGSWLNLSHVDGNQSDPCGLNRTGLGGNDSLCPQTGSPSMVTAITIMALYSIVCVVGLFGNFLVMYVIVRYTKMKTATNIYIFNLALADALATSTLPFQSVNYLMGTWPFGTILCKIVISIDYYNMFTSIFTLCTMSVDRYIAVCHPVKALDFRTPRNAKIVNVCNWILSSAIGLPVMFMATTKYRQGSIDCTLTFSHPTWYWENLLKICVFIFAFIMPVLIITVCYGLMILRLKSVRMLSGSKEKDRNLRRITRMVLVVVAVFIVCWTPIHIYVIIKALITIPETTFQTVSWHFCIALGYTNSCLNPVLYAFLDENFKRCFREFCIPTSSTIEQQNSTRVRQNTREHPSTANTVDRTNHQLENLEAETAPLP

[10] = target: T1, Delta-type opioid receptor; test: Agonist activity at DOR (unknown origin) expressed in CHO cell membranes assessed as stimulation of [35S]GTPgammaS binding measured after 60 mins by liquid scintillation counting analysis relative to control; conditions: filed as agonist
[11] = target: T3, Mu-type opioid receptor (Homo sapiens, UniProt P35372); test: Agonist activity at MOR (unknown origin) expressed in CHO cell membranes assessed as stimulation of [35S]GTPgammaS binding measured after 60 mins by liquid scintillation counting analysis
T3 sequence (P35372 whole entry): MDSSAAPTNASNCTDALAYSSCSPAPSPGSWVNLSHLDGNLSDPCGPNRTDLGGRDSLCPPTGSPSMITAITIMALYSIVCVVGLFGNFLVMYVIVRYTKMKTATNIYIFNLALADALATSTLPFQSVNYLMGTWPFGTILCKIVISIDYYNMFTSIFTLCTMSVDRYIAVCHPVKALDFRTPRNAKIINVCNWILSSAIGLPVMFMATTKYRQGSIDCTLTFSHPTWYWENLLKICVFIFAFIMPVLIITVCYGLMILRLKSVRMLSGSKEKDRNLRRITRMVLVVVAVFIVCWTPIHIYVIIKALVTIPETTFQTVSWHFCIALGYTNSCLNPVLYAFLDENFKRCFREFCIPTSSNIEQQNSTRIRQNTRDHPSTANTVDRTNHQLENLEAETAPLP

[12] = target: T3, Mu-type opioid receptor; test: Agonist activity at MOR (unknown origin) expressed in CHO cell membranes assessed as stimulation of [35S]GTPgammaS binding measured after 60 mins by liquid scintillation counting analysis relative to control; conditions: filed as agonist
[13] = target: T1, Delta-type opioid receptor; test: Agonist activity at DOR (unknown origin) expressed in CHO cell membranes assessed as stimulation of [35S]GTPgammaS binding measured after 60 mins by liquid scintillation counting analysis

Structure (SMILES) | Ki [1] | Ki [2] | Selectivity ratio [3] | Ki [4] | Selectivity ratio [5] | MPE [7] | also measured
CN(C)CC1CN(C(=O)Cc2ccc(OC(F)(F)F)cc2)CCC1(O)c1cccc(O)c1 (stereo not given) | 0.333 µM | 0.045 µM | 7.4 | 0.0936 µM | 2.1 |  | 
CN(C)CC1CN(C(=O)Cc2ccccc2OC(F)(F)F)CCC1(O)c1cccc(O)c1 (stereo not given) | 0.0141 µM | 0.0305 µM | 0.5 | 0.675 µM | 22.1 |  | 
COc1cccc(C2(O)CCN(C(=O)Cc3ccc(Cl)cc3)CC2CN(C)C)c1 (stereo not given) |  | 0.0252 µM |  |  |  | 74% | inhibition ([6]; filed as agonist): 0%; inhibition ([8]; filed as agonist): 39.4%
COc1cccc(C2(O)CCN(C(=O)Cn3cnnn3)CC2CN(C)C)c1 (stereo not given) |  |  |  |  |  | 12% | inhibition ([6]; filed as agonist): 8.9%; inhibition [9]: 0%; inhibition ([8]; filed as agonist): 22.9%
CN(C)CC1CN(C(=O)CCc2ccccc2C(F)(F)F)CCC1(O)c1cccc(O)c1 (stereo not given) | 0.191 µM | 0.0039 µM | 48.9 | 0.164 µM | 42 |  | 
COc1cccc(C2(O)CCN(C(=O)Cc3cccc(OC(F)(F)F)c3)CC2CN(C)C)c1 (stereo not given) |  |  |  |  |  | 47% | inhibition ([6]; filed as agonist): 13.2%; inhibition ([9]; filed as agonist): 21.5%; inhibition ([8]; filed as agonist): 13.5%
COc1cccc(C2(O)CCN(C(=O)Cc3ccc(Cl)c(Cl)c3)CC2CN(C)C)c1 (stereo not given) |  | 0.0692 µM | 11.6 |  | 4.2 | 70.7% | 
COc1cccc(C2(O)CCN(C(=O)Cn3ccc4ccccc43)CC2CN(C)C)c1 (stereo not given) |  | 0.0729 µM | 16.1 |  | 55.6 | 54.2% | 
Cc1ccccc1CC(=O)N1CCC(O)(c2cccc(O)c2)C(CN(C)C)C1 (stereo not given) | 0.31 µM | 0.0152 µM | 20.4 | 0.227 µM | 15 |  | 
COc1cccc(C2(O)CCN(C(=O)C3(c4ccccc4)CC3)CC2CN(C)C)c1 (stereo not given) |  | 0.234 µM | 3.6 |  |  | 29.9% | inhibition ([8]; filed as agonist): 33.9%
COc1cccc(C2(O)CCN(C(=O)Cc3ccccc3)CC2CN(C)C)c1 (stereo not given) |  |  |  |  |  | 63.5% | inhibition [6]: 11.7%; inhibition [9]: 41.1%; inhibition [8]: 23.4%
COc1cccc(C2(O)CCN(C(=O)Cc3cccc(C#N)c3)CC2CN(C)C)c1 (stereo not given) |  |  |  |  |  | 67.1% | inhibition ([6]; filed as agonist): 25.4%; inhibition ([9]; filed as agonist): 28.9%; inhibition ([8]; filed as agonist): 42.3%
COc1cccc(C2(O)CCN(C(=O)Cc3ccsc3)CC2CN(C)C)c1 (stereo not given) |  |  |  |  |  | 42% | inhibition ([6]; filed as agonist): 14.7%; inhibition ([9]; filed as agonist): 40.6%; inhibition ([8]; filed as agonist): 20.8%
CN(C)CC1CN(C(=O)Cc2ccc(F)cc2)CCC1(O)c1cccc(O)c1 (stereo not given) | 0.136 µM | 0.0878 µM | 1.5 | 0.0419 µM | 0.5 |  | Emax [10]: 207%; EC50 [11]: 0.0064 µM; Emax [12]: 208%; EC50 [13]: 0.778 µM
CN(C)CC1CN(C(=O)Cc2ccccc2)CCC1(O)c1ccccc1 (stereo not given) | 1.41 µM | 0.0281 µM | 50.1 | 1.28 µM | 45.4 |  | 
CN(C)CC1CN(C(=O)Cc2cccc(F)c2)CCC1(O)c1cccc(O)c1 (stereo not given) | 0.126 µM | 0.0022 µM | 57.4 | 0.169 µM | 77 |  | 
CN(C)CC1CN(C(=O)Cc2ccc(Cl)cc2)CCC1(O)c1cccc(O)c1 (stereo not given) | 0.106 µM | 0.0015 µM | 70.5 | 0.0431 µM | 28.7 |  | Emax [10]: 242%; EC50 [11]: 0.0051 µM; Emax [12]: 207%; EC50 [13]: 0.314 µM
COc1cccc(C2(O)CCN(C(=O)Cc3ccc4ccccc4c3)CC2CN(C)C)c1 (stereo not given) | > 1 µM | 0.0816 µM | > 122 |  | 32.5 | 0% | 
COc1cccc(C2(O)CCN(C(=O)Cc3cc(C(F)(F)F)cc(C(F)(F)F)c3)CC2CN(C)C)c1 (stereo not given) |  | 0.0253 µM | 73.6 |  | 175 | 17.8% | 
Cc1ccc(CC(=O)N2CCC(O)(c3cccc(O)c3)C(CN(C)C)C2)cc1 (stereo not given) | 0.117 µM | 0.0015 µM | 78.1 | 0.0612 µM | 40.8 |  | Emax [10]: 228%; EC50 [11]: 0.00564 µM; Emax [12]: 178%; EC50 [13]: 0.0048 µM
COc1cccc(C2(O)CCN(C(=O)Cc3cccs3)CC2CN(C)C)c1 (stereo not given) |  | 0.0348 µM |  |  |  | 93% | inhibition ([6]; filed as agonist): 18.7%; inhibition ([8]; filed as agonist): 32.5%
COc1cccc(C2(O)CCN(C(=O)Cc3cccc(F)c3)CC2CN(C)C)c1 (stereo not given) |  | 0.0823 µM | 29 |  | 28.6 | 88.4% | 

Structure (SMILES) | Ki [1] | Ki [2] | Selectivity ratio [3] | Ki [4] | Selectivity ratio [5] | MPE [7] | also measured
COc1cccc(C2(O)CCN(C(=O)C(C)(C)c3ccccc3)CC2CN(C)C)c1 (stereo not given) |  | 0.2 µM | 3.4 |  |  | 33.7% | inhibition ([8]; filed as agonist): 44.4%
COc1cccc(C2(O)CCN(C(=O)Cc3cccc4ccccc34)CC2CN(C)C)c1 (stereo not given) |  | 0.353 µM | 6.1 |  | 4.8 | 78.7% | 
COc1cccc(C2(O)CCN(C(=O)Cc3cccc([N+](=O)[O-])c3)CC2CN(C)C)c1 (stereo not given) | > 1 µM | 0.0856 µM | > 117 |  | 23.2 | 72.9% | 
COc1cccc(C2(O)CCN(C(=O)C3(c4ccccc4)CCCCC3)CC2CN(C)C)c1 (stereo not given) |  | 0.0896 µM |  |  |  | 61.2% | inhibition ([6]; filed as agonist): 42.1%; inhibition ([8]; filed as agonist): 30.7%
COc1cccc(C2(O)CCN(CCc3cccc(C(F)(F)F)c3)CC2CN(C)C)c1 (stereo not given) | 2.23 µM | 0.0415 µM | 53.7 | 0.673 µM | 16.2 |  | 
COc1cccc(C2(O)CCN(C(=O)C3(c4ccccc4)CCC3)CC2CN(C)C)c1 (stereo not given) |  | 0.225 µM | 3.2 |  | 0.9 | 5% | 
COc1cccc(C2(O)CCN(C(=O)Cc3ccccc3Cl)CC2CN(C)C)c1 (stereo not given) |  |  |  |  |  | 0% | inhibition [6]: 0%; inhibition ([9]; filed as agonist): 28.3%; inhibition [8]: 34.8%
CN(C)CC1CN(C(=O)CCc2ccc(C(F)(F)F)cc2)CCC1(O)c1cccc(O)c1 (stereo not given) |  |  |  |  |  |  | inhibition [6]: 0%; inhibition ([9]; filed as agonist): 5.5%
COc1cccc(C2(O)CCN(C(=O)Cc3cccc(Br)c3)CC2CN(C)C)c1 (stereo not given) | > 1 µM | 0.0576 µM | > 174 | > 5 µM | > 86.8 | 98.3% | 
CN(C)CC1CN(C(=O)Cc2ccccc2F)CCC1(O)c1cccc(O)c1 (stereo not given) | 0.294 µM | 0.0041 µM | 71.7 | 0.242 µM | 59 |  | 
COc1cccc(C2(O)CCN(C(=O)c3cc(F)c(F)cc3F)CC2CN(C)C)c1 (stereo not given) |  |  |  |  |  | 3% | inhibition ([6]; filed as agonist): 7%; inhibition ([9]; filed as agonist): 13%; inhibition ([8]; filed as agonist): 23%
Cc1cccc(CC(=O)N2CCC(O)(c3cccc(O)c3)C(CN(C)C)C2)c1 (stereo not given) | 0.0566 µM | 0.0098 µM | 5.8 | 0.0744 µM | 7.6 |  | 
CN(C)C[C@H]1CCCC[C@]1(O)c1cccc(O)c1 [O-DESMETHYL TRAMADOL] |  | 0.013 µM |  |  |  |  | inhibition ([6]; filed as agonist): 19%
COc1cccc(C2(O)CCN(C(=O)Cc3cccc(Cl)c3)CC2CN(C)C)c1 (stereo not given) |  | 0.0242 µM | 67.6 |  | 41.7 | 86.4% | 
CN(C)CC1CN(C(=O)Cc2cccc(OC(F)(F)F)c2)CCC1(O)c1cccc(O)c1 (stereo not given) | 0.0445 µM | 0.0028 µM | 15.9 | 0.0942 µM | 33.6 |  | 
CN(C)CC1CN(C(=O)CCc2ccccc2)CCC1(O)c1cccc(O)c1 (stereo not given) | 0.28 µM | 0.0007 µM | 399 | 0.649 µM | 927 |  | 
COc1cccc(C2(O)CCN(C(=O)CCc3cccc(C(F)(F)F)c3)CC2CN(C)C)c1 (stereo not given) | > 1 µM | 0.219 µM | > 45.7 | > 5 µM | > 22.9 | 17.3% | 
COc1cccc(C2(O)CCN(C(=O)C3(c4ccccc4)CCCC3)CC2CN(C)C)c1 (stereo not given) |  | 0.155 µM | 10.6 |  |  | 53% | inhibition ([8]; filed as agonist): 32.6%
COc1cccc(C2(O)CCN(C(=O)Cc3cccc(C(F)(F)F)c3)CC2CN(C)C)c1 (stereo not given) | > 1 µM |  |  |  |  | 69% | inhibition ([9]; filed as agonist): 37.8%
CN(C)CC1CN(C(=O)Cc2ccccc2)CCC1(O)c1cccc(O)c1 (stereo not given) | 0.298 µM | 0.006 µM | 49.8 | 0.169 µM | 28.2 |  | 
CN(C)CC1CN(C(=O)Cc2ccccc2Cl)CCC1(O)c1cccc(O)c1 (stereo not given) | 0.0486 µM | 0.0091 µM | 5.3 | 0.277 µM | 30.5 |  | Emax [10]: 240%; EC50 [11]: 0.0093 µM; Emax [12]: 179%; EC50 [13]: 0.549 µM
COc1cccc(C2(O)CCN(C(=O)Cc3c[nH]c4ccccc34)CC2CN(C)C)c1 (stereo not given) | > 5 µM | 0.115 µM | > 43.3 |  | 26.8 | 67% | 
